In article PMC5641330, “Prediction of a Therapeutic Dose for Buagafuran, a Potent Anxiolytic Agent by Physiologically Based Pharmacokinetic/Pharmacodynamic Modeling Starting from Pharmacokinetics in Rats and Human” (Frontiers in Pharmacology, 2017):
Where two headings read alike, the source gives them in different places.

Columns and labels:
[1] = PBPK simulation in rat (GastroPlus)
From the text: GastroPlus^TM software (version 8.5) was used to perform all simulations, (Simulations Plus, Inc., Lancaster, CA, United States). The absorption of oral formulations from the GI tract was modeled by the advanced compartmental absorption and transit (ACAT^TM) model implemented in GastroPlus ([Agoram et al., 2001]; [Kuentz et al., 2006]; [Huang et al., 2009]; [Zhang et al., 2011]). Input parameters in the ACAT model include three groups: formulation properties, physicochemical properties and pharmacokinetic parameters. […] The immediate release (IR) suspension for rat and IR capsule for human were selected for simulation of buagafuran in GastroPlus^TM. The ACAT model consists of nine compartments that mimic the GI tract. Each GI tract has an associated ASF. ASF is the multiplier used to scale the permeability to account for different surface-to-volume ratios, pH effects, transporter differences, and other factors that affect absorption between different compartments ([Zhang et al., 2011]). Four coefficients C1–C4 are used to calculate ASF. And there are eight basic ASF models in version 8.5. […]
The pharmacokinetic parameters of unbound fraction in plasma (FUp) were experimentally measured values. […]

[2] = parameters: method as in Zhang, 1997; Li et al., 2001; Li, 2010; conditions: human liver microsomes, ref Zhang, 1997, Li et al., 2001, 2010; cited from earlier work
[3] = Plasma PK in the rat after oral dosing (observed); assay type: in vivo, male Wistar rats; conditions: male, Wistar; for AUC(0-t): read-out: AUC0-t Observed; for AUC(0-inf): read-out: AUC0-∞ Observed; for MRT inf: read-out: MRT(0-∞) Observed
From the text: Animal Care and Welfare Committee of Institute of Materia Medica, Chinese Academy of Medical Sciences approved all animal protocols (1 Xian nong tan Street, Xicheng District, Beijing, China; Permission Number: SYXK 2014-0023, Expiration: 06 Aug, 2019). All animal programs are in compliance with the Guide for the Care and Use of Laboratory Animals issued by Beijing Association on Laboratory Animal Care (BALAC). Buagafuran formulation of PVP was suspended in deionized water and was orally administered at 4 or 8 mg/kg to male Wistar rats (weighing 180–200 g). Brain samples treated with the dose of 4 mg/kg and blood samples of both treatments were collected over 3 h. Plasma samples were obtained by centrifugation, and brain tissues were homogenized in a threefold volume (w/v) of saline. Buagafuran concentrations in plasma and brain samples were quantitated by an LC-MS/MS method ([Yang et al., 2011]).
A volume of 200 μL plasma or tissue homogenate was mixed with 100 μL IS (10 ng/mL) followed by addition of 2 mL hexane. After vortexing for 2 min, the mixture was centrifuged for 5 min at 3000 g. The extracted solution was combined and evaporated to dryness at 25°C. The residues were reconstituted in 80 μL of 80% methanol. The chromatographic separation and mass spectrometric analysis was performed on a LC/TSQ Quantum Access mass spectrometer (Thermo Finnigan, San Jose, CA, United States). Ten microliter of the sample was injected onto an Agilent Eclipse Plus C18 analytical column (3.5 μm, 50 mm × 2.1 mm) and then buagafuran and IS were eluted with a gradient of acetonitrile (phase B) and water containing 0.1% v/v formic acid (phase A). The elution program was applied as follows: 50% B for 0–0.5 min, 50% B→97% B for 0.6–5.5 min, 50% B for 5.6–7.6 min. The outlet of the column was detected in positive ionization electrospray mode with selected reaction monitoring. The monitored transitions of buagafuran and IS were m/z 245→105 and 500→142, respectively. The retention time (RT) of buagafuran was 6.13 min. The linear range of the calibration curve was 0.5–800 ng/mL.
Pharmacokinetic parameters were determined with a non-compartmental model using WinNonlin v 6.0 (Pharsight Corporation, Mountain View, CA, United States). The area under the compound concentration versus time curve from time zero to the last time point (AUC0-t) and extrapolated to infinity (AUC0-∞) and the peak plasma concentration (Cmax) were calculated.

With CCCCC1=CCC[C@@]2(C)CC[C@@H]3C[C@]12OC3(C)C [buagafuran] as the molecule, how does the Kp ([1]; brain, oral, optimized by parameter sensitivity analysis, also used for human simulation) read?
Its Kp is 6.7.

What about the “input (refined) CLhep” value ([1]; optimized by comparing fitting with observed PK data) of the same molecule?
Its value is 2.21 L/h/kg.

And the extraction ratio [2]?
The extraction ratio was “about 50%”.

And the Cmax ([3]; oral 4 mg/kg)?
The Cmax was 5.31 ng/mL.

What about the AUC(0-t) ([3]; oral 4 mg/kg) of the same molecule?
The AUC(0-t) was 0.00669 µg·h/mL.

What about the AUC(0-inf) ([3]; oral 4 mg/kg) of the same molecule?
Its AUC(0-inf) is 0.0114 µg·h/mL.

What about the MRT inf ([3]; oral 4 mg/kg) of the same molecule?
Its MRT inf is 212 min.

What about the Tmax ([3]; oral 4 mg/kg, read-out: Tmax Observed) of the same molecule?
Its Tmax is 15 min.

What about the Cmax ([3]; oral 8 mg/kg) of the same molecule?
The Cmax was 10.6 ng/mL.

And the AUC(0-t) ([3]; oral 8 mg/kg)?
The AUC(0-t) was 0.0142 µg·h/mL.

And the AUC(0-inf) ([3]; oral 8 mg/kg)?
The AUC(0-inf) was 0.0151 µg·h/mL.

And the MRT inf ([3]; oral 8 mg/kg)?
Its MRT inf is 72.6 min.

And the Tmax ([3]; single oral dosing 4 and 8 mg/kg, read-out: time of peak plasma concentration (converted))?
Its Tmax is 15 min.
